Results from patent publication US20250073257A1, “SMALL MOLECULE AND SIRNA INHIBITORS AGAINST LIPOCALIN-2” (UNIVERSITY OF PUERTO RICO, priority 2021, published 2025).
“Also recorded” adds a separate entry of the source.

Tests used:
SUM149 cells [1] = assay: Colony formation (clonogenic) assay, SUM149 cells; format: cell-based, human; conditions: vs DMSO
Description: Cell growth was assessed by colony formation assays: MDA-IBC3 cells (5.5×10^4 cells/mL) or SUM149 (5.0×10^4 cells/mL) were seeded into 6-well plates. Twenty-four hours later, siRNAs were added to the cells. Twenty-four hours (MDA-IBC3 cells) or forty-eight hours (SUM149) after transfection, 1500 cells for MDA-IBC3 and 1000 cells for SUM149 were seeded into 10-cm Petri dishes containing Hams F-12 (10% FBS, 0.1% antibiotic/antimycotic solution, 0.001% insulin from bovine pancreas, and 0.005% hydrocortisone), and incubated at 37° C. Twelve days (SUM149 cells) or 19 days (MDA-IBC3 cells) later, colony-forming cells were stained with 0.5% crystal violet solution. Colonies (with at least 50 cells) were counted under a light microscope (Olympus CKX41) in five random fields with a total magnification of 10×.
(§1) For cell viability, SUM149 (5.0×10^4 cells/mL) were seeded in 96-well plates. Twenty-four hours later, cells were treated with serial dilutions (0.01 μM, 0.1 μM, 1.0 μM, 10 μM, and 100 μM, final concentrations) of the LCN2 inhibitors. Seventy-two hours after treatment, cell viability was performed as above described, taking the DMSO (1%) treated OD values as the normalization control. For colony formation assays, SUM149 cells (5.0×10^4 cells/mL), MCF7 (4.5×10^4 cells/mL), MCF7-LCN2 (4.5×10^4 cells/mL), or MCF7-EV (4.5×10^4 cells/mL) were seeded into 24-well plates and incubated at 37° C. Twenty-four hours later, LCN2 inhibitors bought to Asinex corporation (North chestnut, NC) were dissolved in DMSO (0.2%) and added to the cells at 10 μM, 1 μM, and 0.1 μM (final concentrations). NT cells and DMSO (0.2%) treated cells were used as controls. SUM149 (500 cells) and MCF7 (3,000 cells) cells were seeded in 6-well plates per treatment for colony formation assays.

Caspase-3 = Caspase-3 fluorometric activity assay; format: cell-based, human; conditions: positive control, 0.5 nM; cell line not given
Description: Caspase-3 activity was assessed using a caspase-3/CPP32 fluorometric assay kit (Bio Vision, CA, USA) as described in the manufacturer's protocol, with some modifications. Briefly, SUM149 (5.0×10^4 cells/mL) and MDA-IBC3 (5.5×10^4 cells/mL) were seeded in 10 cm Petri dishes and transiently transfected with siRNAs as above described. Docetaxel (0.5 nM final concentration) was used as a positive control. Seventy-two hours post-transfection cells were collected, protein extracts were obtained and incubated with the Asp-Glu-Val-Asp (DEVD) peptide substrate—which is conjugated to the 7-amino-4-trifluoromethyl coumarin (AFC)—at 37° C. for 60 min. Releasing of AFC was measured with a fluorometric plate reader (Varioskan LUX, ThermoFisher, USA) at an excitation wavelength of 400 nm and an emission wavelength of 505 nm. The fold-change increase in caspase-3 activity was determined by comparing the release of AFC from the siRNA-transfected cells with the AFC release by the untreated cells.

SUM149 cells [2] = assay: Cell viability, Alamar Blue, SUM149 cells; format: cell-based; conditions: Homo sapiens, 72 hours, vs DMSO, read-out: reduction of cell viability
Description: MDA-IBC3 cells (5.5×10^4 cells/mL) or SUM149 (5.0×10^4 cells/mL) were seeded in 96-well plates. Twenty-four hours later, cells were transiently transfected with serial dilutions of LCN2-siRNA and NC-siRNA (12.5 nM, 25 nM, 50 nM, and 100 nM final concentrations) with Lipofectamine 2000 RNAiMax. Seventy-two hours after transfection, the medium was removed, and cell viability was measured using Alamar blue dye (Invitrogen, CA, USA) as previously described by. Optical density (OD) values were obtained spectrophotometrically in a plate reader (Bio-Rad) after 3 hours of dye incubation. In all cases, percentages of cell viability were obtained after blank OD subtraction, taking the untreated cells values as a normalization control.
For cell viability, SUM149 (5.0×10^4 cells/mL) were seeded in 96-well plates. Twenty-four hours later, cells were treated with serial dilutions (0.01 μM, 0.1 μM, 1.0 μM, 10 μM, and 100 μM, final concentrations) of the LCN2 inhibitors. Seventy-two hours after treatment, cell viability was performed as above described, taking the DMSO (1%) treated OD values as the normalization control. For colony formation assays, SUM149 cells (5.0×10^4 cells/mL), MCF7 (4.5×10^4 cells/mL), MCF7-LCN2 (4.5×10^4 cells/mL), or MCF7-EV (4.5×10^4 cells/mL) were seeded into 24-well plates and incubated at 37° C. […]

p-Akt = assay: Akt/p-Akt measurements by Western blot; format: cell-based, human; conditions: SUM149 cells; for total Akt protein levels: all doses and time-points tested
Description: Cell lysates were collected on ice using lysis buffer (1% Triton X, 150 mM NaCl, 25 mM Tris HCl,0.4 mM NaVO4, 0.4 mM NaF and protease inhibitor cocktail from Sigma, St. Louis, MO, USA) and vortexed periodically for 30 min. Lysates were centrifuged for 15 min at 4° C., and supernatants were collected. Total protein concentrations were determined using Bio-Rad DC Protein Assay reagents (Bio-Rad) following the manufacturer's protocol. Equal amounts of protein for each sample (40 μg to 50 μg per lane) were separated by SDS-PAGE, blotted onto nitrocellulose membranes, blocked with 5% non-fat milk, and probed with the appropriate dilution of the corresponding primary antibody. Once incubated with the primary antibody, membranes were rinsed and incubated with the corresponding HRP-conjugated secondary antibody. Bound antibodies were detected using an enhanced chemiluminescence substrate followed by autoradiography using a FluorChem™ 8900 (Alpha Innotech Corporation, San Leandro, CA, USA). Primary antibodies: anti-LCN2 (AF1757) (24 kDa), (R&D System, MN, USA); Caspase 9 (9502) (47 kDa), Caspase 3 (9665) (35 kDa), Cleaved Caspase 9 (20750) (37 kDa), Cleaved Caspase 3 (9664) (17/19 kDa), PARP-1 (46D11) (89,116 kDa), CDK4 (D9G3D) (30 kDa), CDK6 (DCS83) (36 kDa), Cyclin E1 (HE12) (48 kDa), Cyclin E2 (4132) (48 kDa), p21/Waf1/Cip1 (12D1) (21 kDa), p27/Kip1 (D69C12) (27 kDa), Akt (4685) (60 kDa), p-Akt (Ser473) (4060) (60 kDa) (Cell Signaling, Danvers, MA, USA); anti-β-actin (42 kDa) (Sigma). Secondary antibodies: anti-goat IgG horseradish peroxidase (HRP) (HAF 109) (R&D Systems), anti-mouse and anti-rabbit IgG (HRP) (Cell Signaling).
SUM149 cells (5.0×10^4 cells/mL) were seeded in 10-cm Petri plates and incubated at 37° C. Twenty-four hours later, cells were treated with the LCN2 inhibitors ZINC00784494 and ZINC00640089 at 10 μM and 1 μM concentrations. NT and DMSO (0.2% final concentration) treated cells were used as controls. Cell pellets of each condition were collected at 15 minutes, 1 hour, and 24 hours after drug treatment. The p-AKT Akt and Akt protein levels were assessed by Western blots as above described.

MCF7-LCN2 cells = assay: Colony formation assay, MCF7-LCN2 cells; format: cell-based, human; conditions: vs untreated cells
Description: (§2) Ectopic LCN2 expression was performed in breast cancer MCF7 cells. Human LCN2 open reading frame (LCN2ORF) (RC207685, OriGene, Rockville, MD) or empty vector pCMV6-Entry (MCF7-EV) (PS100001, OriGene, Rockville, MD was stable transfected into MCF7 cells. MCF7 cells (4.0×10^4 cells/mL) were seeded in 6-well plates and incubated at 37° C. Twenty-four hours later, 5 μg of LCN2-ORF were mixed with Lipofectamine 2000 RNAiMax transfection reagent (Life Technologies) at a 1:1 (v/v) (plasmid: transfection reagent) in serum and antibiotic-free Opti-MEM medium (Life Technologies) and incubated at 37° C. Six hours later medium was replaced with MCF7 culture media and incubated at 37° C. Forty-eight hours later the antibiotic neomycin was added at a final concentration of 1.8 mg/mL for the selection of transduced MCF7 cells. After 2-3 weeks, independent colonies were picked and cultured separately as independent clones.
as §1

MCF7-EV cells = assay: Colony formation assay, MCF7-EV cells; format: cell-based, human; conditions: 0.1 μM, 1 μM and 10 μM
Description: as §2
For cell viability, SUM149 (5.0×10^4 cells/mL) were seeded in 96-well plates. Twenty-four hours later, cells were treated with serial dilutions (0.01 μM, 0.1 μM, 1.0 μM, 10 μM, and 100 μM, final concentrations) of the LCN2 inhibitors. Seventy-two hours after treatment, cell viability was performed as above described, taking the DMSO (1%) treated OD values as the normalization control. […]

Row | SMILES | reduction in number of colonies formed (SUM149 cells [1]; 10 μM) [%] | increase of caspase-3 activity (Caspase-3) | reduction in number of colonies formed (SUM149 cells [1]; 1 μM) [%] | cytotoxicity at 10 µM (SUM149 cells [2]) [%] | p-AKT protein levels (p-Akt; 10 μM and 1 μM) | p-Akt protein levels (p-Akt; 10 μM and 1 μM, 15 minutes and 1 hour after treatment, vs DMSO) | p-Akt protein levels (p-Akt; 24 hours after treatment) | total Akt protein levels (p-Akt) | decrease in colony formation (MCF7-LCN2 cells; 0.1 μM) [%] | decrease in colony formation (MCF7-LCN2 cells; 1 μM) [%] | decrease in colony formation (MCF7-LCN2 cells; 10 μM) [%] | colony formation (MCF7-EV cells)
1 | O=C(NC(Nc1ncccn1)C(=O)c1ccccc1)c1ccccc1 (stereo not drawn) [ZINC00230567] | 62 | – | – | – | – | – | – | – | – | – | – | –
2 | CC(=O)O[C@@]12CO[C@@H]1C[C@H](O)[C@@]1(C)C(=O)[C@H](O)C3=C(C)[C@@H](OC(=O)[C@H](O)[C@@H](NC(=O)OC(C)(C)C)c4ccccc4)C[C@@](O)([C@@H](OC(=O)c4ccccc4)[C@H]21)C3(C)C [Docetaxel] | – | two-fold increase | – | – | – | – | – | – | – | – | – | –
3 | CC(=O)c1cccc(Nc2nc(-c3cc4ccccc4oc3=O)cs2)c1 [ZINC00784494] | 37 | – | 43 | 57 | reduced p-Akt in a dose-dependent manner | reduced | not observed | unaltered | 23 | 41 | 49 | did not cause any effect
4 | O=C(CN1C(=O)c2cccc3cccc1c23)Nc1ccccc1C(F)(F)F [ZINC00640089] | 42 | – | – | 35 | reduced p-Akt in a dose-dependent manner; also recorded: reduction | – | – | unaltered | 24 | 54 | 57 | –
5 | Cc1cc(-c2ccccc2)nc2cc(C(=O)N3CCCc4ccccc43)nn12 [ZINC00829534] | 41 | – | – | – | – | – | – | – | – | – | – | –
